Experimental data taken from ChEMBL document CHEMBL3407361, “Structural exploration, synthesis and pharmacological evaluation of novel 5-benzylidenethiazolidine-2,4-dione derivatives as iNOS inhibitors against inflammatory diseases” (Eur J Med Chem, 2015).
In brackets after ≈: the same amount, converted by molar mass. Activity calls are given as the source filed them. The rule behind the calls is not given here.

Assays:
[1] = system: RAW264.7; assay: Inhibition of LPS-induced nitric oxide production in mouse RAW264.7 cells pre-incubated at 100 uM for 2 hrs before LPS challenge measured 18 hrs post LPS challenge by Griess method; format: functional, cell-based
[2] = system: Mus musculus; assay: Antiinflammatory activity in ICR mouse assessed as inhibition of carrageenan-induced paw edema at 10 mg/kg, po administered 30 mins before carrageenan challenge measured after 2 hrs; format: functional
[3] = system: RAW264.7; assay: cells; details: Mus musculus, RAW264.7, 24 h
Description: Cytotoxicity against mouse RAW264.7 cells after 24 hrs by MTT assay

[4] = system: RAW264.7; assay: Cytotoxicity against LPS-stimulated mouse RAW264.7 cells after 24 hrs by MTT assay; format: cell-based; details: RAW264.7, 24 h
[5] = system: RAW264.7; assay: Inhibition of LPS-induced nitric oxide production in mouse RAW264.7 cells pre-incubated for 2 hrs before LPS challenge measured 18 hrs post LPS challenge by Griess method; format: functional, cell-based
[6] = Cmax in Sprague-Dawley rat at 5 mg/kg; format: ADME, organism-based; parameters: dose 5 mg/kg; details: in vivo
[7] = Cmax in Sprague-Dawley rat at 20 mg/kg, po; format: ADME, organism-based; parameters: dose 20 mg/kg, route oral; details: in vivo
[8] = Solubility in PBS at pH 7.4 assessed as maximum soluble concentration at 25 degC by nephelometry; format: physicochemical
[9] = molecular target: T1, Nitric oxide synthase, inducible (Mus musculus, UniProt P29477); assay: Inhibition of iNOS-induced nitric oxide production in LPS-stimulated mouse RAW264.7 cells pre-incubated for 2 hrs before LPS challenge by fluorescence assay; format: cell-based
T1 sequence (P29477 whole entry): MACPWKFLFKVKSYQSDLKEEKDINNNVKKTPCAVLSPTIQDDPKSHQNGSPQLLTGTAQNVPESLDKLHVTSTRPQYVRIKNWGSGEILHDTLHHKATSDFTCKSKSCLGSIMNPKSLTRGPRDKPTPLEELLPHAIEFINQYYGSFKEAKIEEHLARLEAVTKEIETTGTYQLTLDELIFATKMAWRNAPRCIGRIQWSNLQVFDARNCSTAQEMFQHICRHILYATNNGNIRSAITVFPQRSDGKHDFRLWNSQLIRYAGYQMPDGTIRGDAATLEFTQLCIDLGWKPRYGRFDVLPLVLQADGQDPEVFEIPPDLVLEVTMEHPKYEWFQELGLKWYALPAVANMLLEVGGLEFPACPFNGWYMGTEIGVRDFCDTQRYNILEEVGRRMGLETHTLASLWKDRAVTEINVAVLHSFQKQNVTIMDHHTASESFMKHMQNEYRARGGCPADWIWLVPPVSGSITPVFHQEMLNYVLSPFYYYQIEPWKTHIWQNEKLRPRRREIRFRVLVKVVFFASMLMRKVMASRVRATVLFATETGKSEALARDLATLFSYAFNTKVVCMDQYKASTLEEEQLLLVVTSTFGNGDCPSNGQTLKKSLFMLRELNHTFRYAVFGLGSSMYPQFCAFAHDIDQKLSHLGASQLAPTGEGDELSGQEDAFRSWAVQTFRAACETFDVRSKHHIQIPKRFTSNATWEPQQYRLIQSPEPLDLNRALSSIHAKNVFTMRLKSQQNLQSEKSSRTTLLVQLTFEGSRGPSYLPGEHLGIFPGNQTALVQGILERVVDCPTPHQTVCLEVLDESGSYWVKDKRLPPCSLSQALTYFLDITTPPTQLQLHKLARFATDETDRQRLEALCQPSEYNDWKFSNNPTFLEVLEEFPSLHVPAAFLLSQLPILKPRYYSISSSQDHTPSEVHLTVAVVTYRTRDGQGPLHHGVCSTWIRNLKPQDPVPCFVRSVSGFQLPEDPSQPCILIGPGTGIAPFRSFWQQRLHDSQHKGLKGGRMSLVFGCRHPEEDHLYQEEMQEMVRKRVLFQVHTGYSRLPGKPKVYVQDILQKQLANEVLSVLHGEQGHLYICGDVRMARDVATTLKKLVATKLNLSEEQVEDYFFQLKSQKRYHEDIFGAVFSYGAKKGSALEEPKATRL

[10] = AUC (0 to t) in Sprague-Dawley rat at 5 mg/kg; format: ADME, organism-based; parameters: dose 5 mg/kg; details: plasma
[11] = Solubility in EtOH assessed as maximum soluble concentration at 25 degC by nephelometry; format: physicochemical; details: ethanol
[12] = Tmax in Sprague-Dawley rat at 5 mg/kg; format: ADME, organism-based; parameters: dose 5 mg/kg; details: in vivo
[13] = AUC (0 to t) in Sprague-Dawley rat at 20 mg/kg, po; format: ADME, organism-based; parameters: dose 20 mg/kg, route oral; details: plasma
[14] = Oral bioavailability in Sprague-Dawley rat at 20 mg/kg; format: ADME, organism-based; details: in vivo
[15] = Half life in Sprague-Dawley rat at 5 mg/kg; format: ADME, organism-based; parameters: dose 5 mg/kg; details: in vivo
[16] = Half life in Sprague-Dawley rat at 20 mg/kg, po; format: ADME, organism-based; parameters: dose 20 mg/kg, route oral; details: in vivo
[17] = Tmax in Sprague-Dawley rat at 20 mg/kg, po; format: ADME, organism-based; parameters: dose 20 mg/kg, route oral; details: in vivo
[18] = system: Rattus norvegicus; assay: Antiinflammatory activity in CFA-induced Lewis rat arthritis model at 10 mg/kg, po; format: functional, organism-based; parameters: dose 10 mg/kg

IC50 [3]	IC50 [5]	SMILES	inhibition [1]	IC50 [4]	also measured
–	–	O=C(COc1cccc(/C=C2\SC(=O)NC2=O)c1)Nc1cccc(Cl)c1	Active	–	–
–	–	C#CCN1C(=O)S/C(=C\c2ccc(OCC(=O)Nc3cccc(Cl)c3)cc2)C1=O	Active	–	–
> 80 µM	40.3 µM	COc1ccc2c(c1)c(CC(=O)O)c(C)n2C(=O)c1ccc(Cl)cc1 [INDOMETHACIN]	–	> 80 µM	inhibition in vivo at 10 mg/kg [2]: 33.5%
–	–	O=C(COc1ccc(/C=C2\SC(=O)N(CC(=O)Nc3ccccc3)C2=O)cc1)Nc1cccc(Cl)c1	Active	–	–
–	–	O=C(COc1ccc(/C=C2\SC(=O)N(CCN3CCCCC3)C2=O)cc1)Nc1cccc(Cl)c1	Active	–	–
> 80 µM	45.6 µM	COc1cc(/C=C2\SC(=O)NC2=O)cc(OC)c1OCC(=O)Nc1cccc(Cl)c1	Active	> 80 µM	inhibition in vivo at 10 mg/kg [2]: 26.1%; Cmax [6]: 0.332 µg/mL; Cmax [7]: 0.0462 µg/mL; solubility kinetic [8]: < 0.5 mg/mL; IC50 [9]: 25.2 µM; AUC(0-t) [10]: 0.387 µg·h/mL; solubility kinetic [11]: 3.1 mg/mL (≈ 6.91 mM); Tmax [12]: 4.2 min; AUC(0-t) [13]: 0.421 µg·h/mL; bioavailability [14]: 27.2%; half-life [15]: 7.83 h; half-life [16]: 5.9 h; Tmax [17]: 2.27 h; Activity [18]: Active
–	–	O=C(COc1ccc(C=C2C(=O)NC(=S)NC2=O)cc1)Nc1cccc(Cl)c1	Active	–	–
–	–	N=C1NC(=O)/C(=C/c2ccc(OCC(=O)Nc3cccc(Cl)c3)cc2)S1	Active	–	–
> 80 µM	68.9 µM	O=C(O)CN1C(=O)/C(=C/c2ccc(OCC(=O)Nc3cccc(Cl)c3)cc2)SC1=S	Active	> 80 µM	IC50 [9]: 47.8 µM
> 80 µM	75.4 µM	O=C(COc1ccc(/C=C2\NC(=O)N(Cc3ccccc3)C2=O)cc1)Nc1cccc(Cl)c1	Active	46.3 µM	IC50 [9]: 43.2 µM
–	–	COC(=O)CCN1C(=O)S/C(=C\c2ccc(OCC(=O)Nc3cccc(Cl)c3)cc2)C1=O	Active	–	–
> 80 µM	21.3 µM	O=C(COc1ccc(/C=C2\SC(=O)NC2=O)cc1)Nc1cccc(Cl)c1	–	> 80 µM	inhibition in vivo at 10 mg/kg [2]: 37.8%; solubility kinetic [8]: < 0.5 mg/mL; solubility kinetic [11]: 1.5 mg/mL (≈ 3.86 mM)
68.4 µM	> 80 µM	COCN1C(=O)S/C(=C\c2ccc(OCC(=O)Nc3cccc(Cl)c3)cc2)C1=O	–	72.5 µM	–
> 80 µM	53.2 µM	CC(CN(C)C)CN1C(=O)S/C(=C\c2ccc(OCC(=O)Nc3cccc(Cl)c3)cc2)C1=O (centres undefined)	Active	> 80 µM	IC50 [9]: 32.1 µM
–	–	O=C(COc1ccc(/C=C2\SC(=O)N(CCN3CCCC3)C2=O)cc1)Nc1cccc(Cl)c1	Active	–	–
